System: 171881-019-R-J1-PDC tumor spheroid viability
Experiment: Anticancer human tumor 171881-019-R-J1-PDC patient-derived invasive breast carcinoma cell line growth inhibition [PI3K]
Details: spheroids with HUVEC and MSC; for IC50: curve of first compound; for viability, T/C: stronger effect = lower value; active means viability on the fitted dose curve at most 10% of control; inactive means the rest
Method in brief: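 We assembled tumor spheroids that included a stromal compartment of HUVEC and MSCs, then exposed them to targeted agents alone and together with PI3K pathway inhibitors. Concentration series descended by half-log from clinically achievable Cmax levels. Viability served as the endpoint.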

[1] = second compound 0.0316 µM, first compound 0.0316 µM
[2] = second compound 0.0316 µM, first compound 0.1 µM
[3] = second compound 0.0316 µM, first compound 0.316 µM
[4] = second compound 0.0316 µM, first compound 1 µM
[5] = second compound 0.0316 µM, first compound 3.16 µM
[6] = second compound 0.0316 µM, first compound 10 µM
[7] = second compound 0.1 µM, first compound 0.0316 µM
[8] = second compound 0.1 µM, first compound 0.1 µM
[9] = second compound 0.1 µM, first compound 0.316 µM
[10] = second compound 0.1 µM, first compound 1 µM
[11] = second compound 0.1 µM, first compound 3.16 µM
[12] = second compound 0.1 µM, first compound 10 µM
[13] = second compound 0.316 µM, first compound 0.0316 µM
[14] = second compound 0.316 µM, first compound 0.1 µM
[15] = second compound 0.316 µM, first compound 0.316 µM
[16] = second compound 0.316 µM, first compound 1 µM
[17] = second compound 0.316 µM, first compound 3.16 µM
[18] = second compound 0.316 µM, first compound 10 µM
[19] = second compound 1 µM, first compound 0.0316 µM
[20] = second compound 1 µM, first compound 0.1 µM
[21] = second compound 1 µM, first compound 0.316 µM
[22] = second compound 1 µM, first compound 1 µM
[23] = second compound 1 µM, first compound 3.16 µM
[24] = second compound 1 µM, first compound 10 µM
[25] = second compound 3.16 µM, first compound 0.0316 µM
[26] = second compound 3.16 µM, first compound 0.1 µM
[27] = second compound 3.16 µM, first compound 0.316 µM
[28] = second compound 3.16 µM, first compound 1 µM
[29] = second compound 3.16 µM, first compound 3.16 µM
[30] = second compound 3.16 µM, first compound 10 µM
[31] = second compound 10 µM, first compound 0.0316 µM
[32] = second compound 10 µM, first compound 0.1 µM
[33] = second compound 10 µM, first compound 0.316 µM
[34] = second compound 10 µM, first compound 1 µM
[35] = second compound 10 µM, first compound 3.16 µM
[36] = second compound 10 µM, first compound 10 µM
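Further: spheroids exposed to compound for 7 days before viability read.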
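Wherever viability, T/C is given: 100% = DMSO vehicle-treated spheroids.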

C#Cc1c(F)ccc2cc(O)cc(-c3ncc4c(N5CC6CCC(C5)N6)nc(OCC56CCCN5CC(F)C6)nc4c3F)c12 (stereo unspecified) + CC(Nc1ncnc2nc[nH]c12)c1cc2cccc(Cl)c2c(=O)n1-c1ccccc1
0.655 µM: IC50 (second compound 0.1 µM)
inactive: viability, T/C [1] 89.6% | viability, T/C [2] 78.5% | viability, T/C [3] 54% | viability, T/C [4] 44.5% | viability, T/C [5] 35.7% | viability, T/C [6] 29.4% | viability, T/C [7] 78.6% | viability, T/C [8] 80.1% | viability, T/C [9] 57% | viability, T/C [10] 43.9% | viability, T/C [11] 34.7% | viability, T/C [12] 24.3% | viability, T/C [13] 83.3% | viability, T/C [14] 71% | viability, T/C [15] 51.6% | viability, T/C [16] 41.8% | viability, T/C [17] 29.7% | viability, T/C [18] 23.2% | viability, T/C [19] 76% | viability, T/C [20] 68.8% | viability, T/C [21] 47.9% | viability, T/C [22] 34.3% | viability, T/C [23] 26.6% | viability, T/C [24] 19.7% | viability, T/C [25] 72.2% | viability, T/C [26] 50.1% | viability, T/C [27] 37.1% | viability, T/C [28] 23.9% | viability, T/C [29] 18.2% | viability, T/C [30] 13.4% | viability, T/C [31] 49.8% | viability, T/C [32] 32.6% | viability, T/C [33] 21.5% | viability, T/C [34] 16.9% | viability, T/C [35] 10.3%
0.314 µM: IC50 (second compound 1 µM)
0.44 µM: IC50 (second compound 0.316 µM)
0.108 µM: IC50 (second compound 3.16 µM)
0.562 µM: IC50 (second compound 0.0316 µM)
active: viability, T/C [36] 6.78%
< 0.0316 µM: IC50 (second compound 10 µM)

CC(Cn1ccc(-c2ccc(C#N)c(Cl)c2)n1)NC(=O)c1cc(C(C)O)[nH]n1 (stereo unspecified) + CC(Nc1ncnc2nc[nH]c12)c1cc2cccc(Cl)c2c(=O)n1-c1ccccc1
> 10 µM: IC50 (second compound 0.0316 µM) | IC50 (second compound 0.1 µM) | IC50 (second compound 0.316 µM) | IC50 (second compound 1 µM) | IC50 (second compound 3.16 µM)
5.12 µM: IC50 (second compound 10 µM)
inactive: viability, T/C [1] 85.5% | viability, T/C [2] 85% | viability, T/C [3] 93% | viability, T/C [4] 70.3% | viability, T/C [5] 68.9% | viability, T/C [6] 59.1% | viability, T/C [7] 80.6% | viability, T/C [8] 105% | viability, T/C [9] 87.8% | viability, T/C [10] 77.6% | viability, T/C [11] 81% | viability, T/C [12] 62.1% | viability, T/C [13] 96.3% | viability, T/C [14] 94.9% | viability, T/C [15] 88.5% | viability, T/C [16] 91.2% | viability, T/C [17] 82% | viability, T/C [18] 66.7% | viability, T/C [19] 104% | viability, T/C [20] 93.8% | viability, T/C [21] 87.8% | viability, T/C [22] 94.9% | viability, T/C [23] 92% | viability, T/C [24] 64.7% | viability, T/C [25] 86.7% | viability, T/C [26] 93.4% | viability, T/C [27] 83.6% | viability, T/C [28] 82.8% | viability, T/C [29] 85% | viability, T/C [30] 58.9% | viability, T/C [31] 60.3% | viability, T/C [32] 59.5% | viability, T/C [33] 55.9% | viability, T/C [34] 56.2% | viability, T/C [35] 57.4% | viability, T/C [36] 40.1%

CC1(C)CCC(Nc2ncc(C(F)(F)F)c(-c3c[nH]c4c(P(C)(C)=O)c(C#N)ccc34)n2)CN1 (stereo unspecified) + CC(Nc1ncnc2nc[nH]c12)c1cc2cccc(Cl)c2c(=O)n1-c1ccccc1
5.91 µM: IC50 (second compound 0.0316 µM)
inactive: viability, T/C [1] 68.3% | viability, T/C [2] 77.2% | viability, T/C [3] 71.8% | viability, T/C [4] 79.3% | viability, T/C [5] 84.1% | viability, T/C [6] 28.1% | viability, T/C [7] 65.5% | viability, T/C [8] 74.5% | viability, T/C [9] 73.1% | viability, T/C [10] 81.5% | viability, T/C [11] 88.8% | viability, T/C [12] 23.3% | viability, T/C [13] 65.5% | viability, T/C [14] 75.1% | viability, T/C [15] 74.1% | viability, T/C [16] 83.2% | viability, T/C [17] 81.9% | viability, T/C [18] 23.4% | viability, T/C [19] 69.1% | viability, T/C [20] 69% | viability, T/C [21] 73.8% | viability, T/C [22] 78.6% | viability, T/C [23] 73% | viability, T/C [24] 20.6% | viability, T/C [25] 66% | viability, T/C [26] 65% | viability, T/C [27] 67.9% | viability, T/C [28] 71.4% | viability, T/C [29] 65.3% | viability, T/C [30] 12.7% | viability, T/C [31] 51% | viability, T/C [32] 47% | viability, T/C [33] 45.9% | viability, T/C [34] 48.5% | viability, T/C [35] 41.4%
4.43 µM: IC50 (second compound 3.16 µM)
active: viability, T/C [36] 3.63%
5.62 µM: IC50 (second compound 0.1 µM)
5.58 µM: IC50 (second compound 0.316 µM)
< 0.0316 µM: IC50 (second compound 10 µM)
5.22 µM: IC50 (second compound 1 µM)

— PubChem BioAssay AID1963986 (Molecular Pharmacology Branch, DTP, NCI, 2024)
